Laboratory results: ChEMBL document CHEMBL4804281, “STK4 inhibitors for treatment of hematologic malignancies” (2020)

What was measured:
[1] = target: Serine/threonine-protein kinase SMG1 (Homo sapiens) (UniProt Q96Q15); assay: Inhibition of SMG1 in human NCI-H929 cells at 10 uM by mass spectroscopic analysis relative to control; format: cell-based
[2] = target: Serine/threonine-protein kinase 10 (Homo sapiens) (UniProt O94804); assay: Inhibition of LOK in human NCI-H929 cells at 10 uM by mass spectroscopic analysis relative to control; format: cell-based
[3] = target: Serine/threonine-protein kinase D3 (Homo sapiens) (UniProt O94806); assay: Inhibition of PKD3 in human NCI-H929 cells at 10 uM by mass spectroscopic analysis relative to control; format: cell-based
[4] = target: Mitogen-activated protein kinase kinase kinase 3 (Homo sapiens) (UniProt Q99759); assay: Inhibition of MAP3K3 in human NCI-H929 cells at 10 uM by mass spectroscopic analysis relative to control; format: cell-based
[5] = target: Mitogen-activated protein kinase kinase kinase kinase 1 (Homo sapiens) (UniProt Q92918); assay: Inhibition of HPK1 in human NCI-H929 cells at 10 uM by mass spectroscopic analysis relative to control; format: cell-based
[6] = target: NUAK family SNF1-like kinase 2 (Homo sapiens) (UniProt Q9H093); assay: Inhibition of NuaK2 in human NCI-H929 cells at 10 uM by mass spectroscopic analysis relative to control; format: cell-based
[7] = target: T1, Serine/threonine-protein kinase TAO1 (Homo sapiens) (UniProt Q7L7X3); assay: Inhibition of TAO1 in human NCI-H929 cells at 10 uM by mass spectroscopic analysis relative to control; format: cell-based
T1 sequence (whole entry): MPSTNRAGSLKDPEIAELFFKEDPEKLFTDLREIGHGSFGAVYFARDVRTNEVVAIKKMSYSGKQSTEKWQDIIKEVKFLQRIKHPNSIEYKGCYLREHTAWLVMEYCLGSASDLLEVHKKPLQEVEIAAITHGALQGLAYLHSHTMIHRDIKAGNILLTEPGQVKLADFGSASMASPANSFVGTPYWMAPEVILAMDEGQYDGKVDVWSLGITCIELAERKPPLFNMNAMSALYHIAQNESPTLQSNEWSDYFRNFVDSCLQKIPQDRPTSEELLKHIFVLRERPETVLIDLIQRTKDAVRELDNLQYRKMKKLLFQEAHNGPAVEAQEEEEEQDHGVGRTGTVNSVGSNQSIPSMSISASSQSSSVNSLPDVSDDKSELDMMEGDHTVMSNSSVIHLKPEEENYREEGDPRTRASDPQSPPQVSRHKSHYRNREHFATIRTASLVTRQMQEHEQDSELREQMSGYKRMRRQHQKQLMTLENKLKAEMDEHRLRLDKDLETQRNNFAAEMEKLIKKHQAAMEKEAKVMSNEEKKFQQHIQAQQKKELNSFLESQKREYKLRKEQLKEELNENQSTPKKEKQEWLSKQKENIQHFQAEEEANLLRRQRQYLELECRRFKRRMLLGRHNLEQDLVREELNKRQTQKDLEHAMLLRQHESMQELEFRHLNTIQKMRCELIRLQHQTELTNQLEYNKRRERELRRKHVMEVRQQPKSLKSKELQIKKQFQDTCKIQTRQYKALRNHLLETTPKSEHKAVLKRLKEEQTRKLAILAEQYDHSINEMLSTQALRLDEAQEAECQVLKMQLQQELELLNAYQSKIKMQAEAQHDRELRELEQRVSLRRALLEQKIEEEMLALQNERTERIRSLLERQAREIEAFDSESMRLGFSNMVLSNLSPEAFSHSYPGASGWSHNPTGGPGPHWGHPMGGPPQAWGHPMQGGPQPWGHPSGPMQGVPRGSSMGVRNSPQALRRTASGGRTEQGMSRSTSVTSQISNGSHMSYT

[8] = target: Serine/threonine-protein kinase D2 (Homo sapiens) (UniProt Q9BZL6); assay: Inhibition of PKD2 in human NCI-H929 cells at 10 uM by mass spectroscopic analysis relative to control; format: cell-based
[9] = target: Casein kinase I isoform epsilon (Homo sapiens) (UniProt P49674); assay: Inhibition of CK1e in human NCI-H929 cells at 10 uM by mass spectroscopic analysis relative to control; format: cell-based
[10] = target: Aurora kinase A (Homo sapiens) (UniProt O14965); assay: Inhibition of AURA in human NCI-H929 cells at 10 uM by mass spectroscopic analysis relative to control; format: cell-based
[11] = test system: MM1.S; assay: Induction of apoptosis in human MM1.S cells assessed as necrotic cells measured after 48 hrs by annevxinV/FITC-propidium iodide staining based flow cytometry (reference value: 0.19 %); format: functional
[12] = target: Mitogen-activated protein kinase kinase kinase 2 (Homo sapiens) (UniProt Q9Y2U5); assay: Inhibition of MAP3K2 in human NCI-H929 cells at 10 uM by mass spectroscopic analysis relative to control; format: cell-based
[13] = target: Ribosomal protein S6 kinase alpha-1 (Homo sapiens) (UniProt Q15418); assay: Inhibition of RSK1 domain 1 in human NCI-H929 cells at 10 uM by mass spectroscopic analysis relative to control; format: cell-based
[14] = target: Casein kinase I isoform delta (Homo sapiens) (UniProt P48730); assay: Inhibition of CK1d in human NCI-H929 cells at 10 uM by mass spectroscopic analysis relative to control; format: cell-based
[15] = target: Dual specificity protein kinase CLK2 (Homo sapiens) (UniProt P49760); assay: Inhibition of CLK2 in human NCI-H929 cells at 10 uM by mass spectroscopic analysis relative to control; format: cell-based
[16] = target: Interleukin-1 receptor-associated kinase 1 (Homo sapiens) (UniProt P51617); assay: Inhibition of IRAK1 in human NCI-H929 cells at 10 uM by mass spectroscopic analysis relative to control; format: cell-based
[17] = target: Serine/threonine-protein kinase 24 (Homo sapiens) (UniProt Q9Y6E0); assay: Inhibition of MST3 in human NCI-H929 cells at 10 uM by mass spectroscopic analysis relative to control; format: cell-based
[18] = target: STE20-like serine/threonine-protein kinase (Homo sapiens) (UniProt Q9H2G2); assay: Inhibition of SLK in human NCI-H929 cells at 10 uM by mass spectroscopic analysis relative to control; format: cell-based
[19] = target: Casein kinase I isoform gamma-2 (Homo sapiens) (UniProt P78368); assay: Inhibition of CK1g2 in human NCI-H929 cells at 10 uM by mass spectroscopic analysis relative to control; format: cell-based
[20] = target: Activin receptor type-1C (Homo sapiens) (UniProt Q8NER5); assay: Inhibition of ALK7 in human NCI-H929 cells at 10 uM by mass spectroscopic analysis relative to control; format: cell-based
[21] = target: Activin receptor type-1 (Homo sapiens) (UniProt Q04771); assay: Inhibition of ALK2 in human NCI-H929 cells at 10 uM by mass spectroscopic analysis relative to control; format: cell-based
[22] = target: Activin receptor type-1B (Homo sapiens) (UniProt P36896); assay: Inhibition of ALK4 in human NCI-H929 cells at 10 uM by mass spectroscopic analysis relative to control; format: cell-based
[23] = target: Mitogen-activated protein kinase kinase kinase kinase 5 (Homo sapiens) (UniProt Q9Y4K4); assay: Inhibition of KHS1 in human NCI-H929 cells at 10 uM by mass spectroscopic analysis relative to control; format: cell-based

Chain of Ribosomal protein S6 kinase alpha-1 (Homo sapiens) (Q15418 whole entry, the tested form may be a part, canonical isoform): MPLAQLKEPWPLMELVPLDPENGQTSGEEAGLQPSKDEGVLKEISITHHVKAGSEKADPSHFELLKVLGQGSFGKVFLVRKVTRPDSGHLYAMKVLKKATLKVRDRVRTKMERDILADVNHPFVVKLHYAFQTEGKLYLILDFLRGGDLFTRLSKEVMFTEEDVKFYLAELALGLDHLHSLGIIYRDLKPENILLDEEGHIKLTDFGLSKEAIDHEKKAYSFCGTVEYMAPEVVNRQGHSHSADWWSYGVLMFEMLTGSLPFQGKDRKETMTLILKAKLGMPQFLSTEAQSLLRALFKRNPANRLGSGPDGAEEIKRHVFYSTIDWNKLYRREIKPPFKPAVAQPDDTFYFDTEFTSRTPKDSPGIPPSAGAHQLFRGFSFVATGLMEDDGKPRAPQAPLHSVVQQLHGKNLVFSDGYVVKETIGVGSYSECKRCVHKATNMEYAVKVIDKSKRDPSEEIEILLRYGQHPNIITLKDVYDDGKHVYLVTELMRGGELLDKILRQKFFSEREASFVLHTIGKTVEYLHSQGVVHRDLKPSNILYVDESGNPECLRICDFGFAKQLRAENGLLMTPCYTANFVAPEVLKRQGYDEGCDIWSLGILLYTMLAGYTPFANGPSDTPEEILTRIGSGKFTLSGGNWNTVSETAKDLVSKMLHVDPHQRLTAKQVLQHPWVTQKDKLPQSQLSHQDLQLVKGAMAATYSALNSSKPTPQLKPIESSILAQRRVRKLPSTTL
Chain of Activin receptor type-1C (Homo sapiens) (Q8NER5 whole entry): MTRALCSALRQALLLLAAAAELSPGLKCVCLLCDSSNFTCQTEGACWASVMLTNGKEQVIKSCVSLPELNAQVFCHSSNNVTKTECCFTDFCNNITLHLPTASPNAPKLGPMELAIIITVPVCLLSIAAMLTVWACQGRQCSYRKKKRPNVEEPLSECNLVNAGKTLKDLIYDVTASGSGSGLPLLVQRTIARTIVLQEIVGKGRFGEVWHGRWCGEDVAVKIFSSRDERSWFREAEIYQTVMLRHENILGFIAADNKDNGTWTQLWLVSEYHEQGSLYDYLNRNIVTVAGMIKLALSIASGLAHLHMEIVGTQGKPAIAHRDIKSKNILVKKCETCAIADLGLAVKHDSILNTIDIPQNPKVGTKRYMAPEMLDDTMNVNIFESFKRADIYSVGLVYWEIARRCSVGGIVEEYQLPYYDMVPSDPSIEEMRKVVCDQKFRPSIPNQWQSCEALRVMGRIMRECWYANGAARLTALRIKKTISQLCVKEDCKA
Chain of Serine/threonine-protein kinase SMG1 (Homo sapiens) (Q96Q15 whole entry): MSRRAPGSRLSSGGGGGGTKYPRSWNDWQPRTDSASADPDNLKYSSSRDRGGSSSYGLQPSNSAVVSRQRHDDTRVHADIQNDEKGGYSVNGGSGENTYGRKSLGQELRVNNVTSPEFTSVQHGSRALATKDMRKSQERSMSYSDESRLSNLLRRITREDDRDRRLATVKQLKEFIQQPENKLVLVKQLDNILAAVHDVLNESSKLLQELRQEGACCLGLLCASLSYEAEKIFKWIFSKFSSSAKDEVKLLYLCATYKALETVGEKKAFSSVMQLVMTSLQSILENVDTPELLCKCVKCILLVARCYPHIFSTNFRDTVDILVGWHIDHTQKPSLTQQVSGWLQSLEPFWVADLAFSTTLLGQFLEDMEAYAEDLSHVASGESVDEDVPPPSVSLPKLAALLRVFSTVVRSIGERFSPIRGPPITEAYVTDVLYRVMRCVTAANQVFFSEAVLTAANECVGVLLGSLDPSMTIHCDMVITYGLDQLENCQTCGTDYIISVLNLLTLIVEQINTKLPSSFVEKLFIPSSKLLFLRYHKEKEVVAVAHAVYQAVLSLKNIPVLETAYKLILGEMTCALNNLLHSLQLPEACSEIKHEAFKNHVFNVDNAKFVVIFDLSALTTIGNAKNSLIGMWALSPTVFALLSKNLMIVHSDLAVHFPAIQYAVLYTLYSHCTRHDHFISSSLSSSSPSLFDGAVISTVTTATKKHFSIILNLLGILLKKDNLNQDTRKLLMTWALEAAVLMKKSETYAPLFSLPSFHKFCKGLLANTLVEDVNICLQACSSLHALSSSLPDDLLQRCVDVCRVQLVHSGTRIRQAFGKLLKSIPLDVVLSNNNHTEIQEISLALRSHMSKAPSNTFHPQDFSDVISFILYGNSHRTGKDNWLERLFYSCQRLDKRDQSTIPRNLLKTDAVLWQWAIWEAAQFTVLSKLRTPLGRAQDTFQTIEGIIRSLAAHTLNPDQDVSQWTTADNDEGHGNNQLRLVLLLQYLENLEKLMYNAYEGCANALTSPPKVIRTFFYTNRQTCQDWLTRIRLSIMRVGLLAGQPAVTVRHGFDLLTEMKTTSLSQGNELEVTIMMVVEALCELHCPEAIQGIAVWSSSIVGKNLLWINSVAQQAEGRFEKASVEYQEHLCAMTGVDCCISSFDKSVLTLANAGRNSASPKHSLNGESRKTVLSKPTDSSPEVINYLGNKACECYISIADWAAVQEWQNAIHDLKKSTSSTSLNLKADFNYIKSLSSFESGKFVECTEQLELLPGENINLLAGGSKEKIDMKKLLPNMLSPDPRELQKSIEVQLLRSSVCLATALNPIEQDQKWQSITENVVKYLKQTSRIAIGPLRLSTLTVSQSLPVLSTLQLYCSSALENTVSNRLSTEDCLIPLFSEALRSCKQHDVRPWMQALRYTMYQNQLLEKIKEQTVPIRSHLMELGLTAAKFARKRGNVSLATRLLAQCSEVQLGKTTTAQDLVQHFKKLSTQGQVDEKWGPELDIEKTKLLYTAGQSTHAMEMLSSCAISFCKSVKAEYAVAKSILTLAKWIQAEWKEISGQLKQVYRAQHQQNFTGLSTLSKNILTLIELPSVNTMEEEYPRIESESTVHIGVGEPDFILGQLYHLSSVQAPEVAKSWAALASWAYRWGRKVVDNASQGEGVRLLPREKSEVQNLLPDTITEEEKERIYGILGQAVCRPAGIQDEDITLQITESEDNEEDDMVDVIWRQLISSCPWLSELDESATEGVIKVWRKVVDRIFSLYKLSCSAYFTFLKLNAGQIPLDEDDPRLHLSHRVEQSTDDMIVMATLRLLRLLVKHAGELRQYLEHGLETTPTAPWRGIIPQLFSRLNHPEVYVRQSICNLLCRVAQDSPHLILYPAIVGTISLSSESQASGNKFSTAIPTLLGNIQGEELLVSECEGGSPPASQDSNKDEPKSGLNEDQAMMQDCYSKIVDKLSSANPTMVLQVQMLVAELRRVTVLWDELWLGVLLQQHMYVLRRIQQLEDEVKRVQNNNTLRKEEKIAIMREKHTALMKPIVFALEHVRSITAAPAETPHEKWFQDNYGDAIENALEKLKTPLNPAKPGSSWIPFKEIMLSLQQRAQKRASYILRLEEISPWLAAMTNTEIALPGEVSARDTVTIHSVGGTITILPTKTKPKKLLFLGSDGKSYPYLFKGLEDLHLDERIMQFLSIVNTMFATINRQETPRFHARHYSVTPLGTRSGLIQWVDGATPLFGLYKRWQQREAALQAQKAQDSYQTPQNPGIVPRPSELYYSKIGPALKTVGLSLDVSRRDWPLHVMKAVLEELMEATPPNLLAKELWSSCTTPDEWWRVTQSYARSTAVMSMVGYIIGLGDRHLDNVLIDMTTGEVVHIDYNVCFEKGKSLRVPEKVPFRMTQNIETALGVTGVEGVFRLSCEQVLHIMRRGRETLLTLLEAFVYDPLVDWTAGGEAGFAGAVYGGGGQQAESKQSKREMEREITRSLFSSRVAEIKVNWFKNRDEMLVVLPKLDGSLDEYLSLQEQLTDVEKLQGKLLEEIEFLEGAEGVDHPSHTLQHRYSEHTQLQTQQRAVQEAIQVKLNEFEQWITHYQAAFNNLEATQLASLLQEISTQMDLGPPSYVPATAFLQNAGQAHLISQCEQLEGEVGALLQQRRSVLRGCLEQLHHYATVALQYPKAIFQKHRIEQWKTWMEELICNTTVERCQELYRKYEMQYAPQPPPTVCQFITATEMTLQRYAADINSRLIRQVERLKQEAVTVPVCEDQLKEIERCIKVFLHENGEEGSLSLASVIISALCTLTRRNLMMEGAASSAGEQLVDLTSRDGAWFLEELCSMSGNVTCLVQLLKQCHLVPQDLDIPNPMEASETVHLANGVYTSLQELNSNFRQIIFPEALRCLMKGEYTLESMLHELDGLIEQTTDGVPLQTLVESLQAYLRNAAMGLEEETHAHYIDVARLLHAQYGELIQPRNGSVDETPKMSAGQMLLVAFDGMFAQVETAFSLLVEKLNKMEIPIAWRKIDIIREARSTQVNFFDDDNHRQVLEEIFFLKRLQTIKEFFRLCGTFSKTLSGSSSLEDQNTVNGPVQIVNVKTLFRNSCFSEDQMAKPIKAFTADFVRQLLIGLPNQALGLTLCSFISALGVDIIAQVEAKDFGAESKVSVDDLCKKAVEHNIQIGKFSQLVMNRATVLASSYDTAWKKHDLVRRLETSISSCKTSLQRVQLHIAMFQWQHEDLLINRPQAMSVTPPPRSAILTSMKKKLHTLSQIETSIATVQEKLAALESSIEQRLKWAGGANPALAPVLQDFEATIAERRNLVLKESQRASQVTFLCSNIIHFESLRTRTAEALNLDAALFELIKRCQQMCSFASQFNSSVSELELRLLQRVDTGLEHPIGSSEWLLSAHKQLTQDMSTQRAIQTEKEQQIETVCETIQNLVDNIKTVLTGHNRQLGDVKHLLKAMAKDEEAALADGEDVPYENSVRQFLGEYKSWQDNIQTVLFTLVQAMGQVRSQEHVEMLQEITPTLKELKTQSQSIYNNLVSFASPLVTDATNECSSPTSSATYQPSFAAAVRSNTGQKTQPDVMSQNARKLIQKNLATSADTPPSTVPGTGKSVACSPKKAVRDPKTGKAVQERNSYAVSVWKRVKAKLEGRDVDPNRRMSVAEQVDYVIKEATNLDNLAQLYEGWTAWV

SMILES	inhibition [1] [%]	inhibition [2] [%]	inhibition [3] [%]	inhibition [4] [%]	inhibition [5] [%]	inhibition [6] [%]	inhibition [7] [%]	inhibition [8] [%]	inhibition [9] [%]	inhibition [10] [%]	inhibition [13] [%]	inhibition [14] [%]	inhibition [15] [%]	inhibition [16] [%]	inhibition [17] [%]	inhibition [18] [%]	inhibition [19] [%]	inhibition [20] [%]	inhibition [21] [%]	inhibition [22] [%]	also measured
Nc1ncc(-c2cccc3ncsc23)cc1-c1ccc2c(c1)CCNC2=O	50	50	50	0	50	50	0	50													
Nc1ncc(-c2cccc([N+](=O)[O-])c2F)cc1-c1ccc2c(c1)CCNC2=O									> 90	< 90	< 75	> 90	0								Activity [11]: 29.41%; inhibition [12]: < 50%
CN(C1CC1)S(=O)(=O)c1ccc(-c2cnc(N)c(-c3ccc4c(c3)CCNC4=O)c2)c(F)c1				0					50			50		50	50	50					
Nc1ncc(-c2ccc(NS(=O)(=O)C3CC3)cc2OC2CCCCC2)cc1-c1ccc2c(c1)CCNC2=O	50						0				< 75		50		> 90		50	> 90	> 90	> 90	inhibition [23]: 50%
Nc1ncc(-c2ccc(NS(=O)(=O)C3CC3)cc2F)cc1-c1ccc2c(c1)CCNC2=O										< 75											
COc1cc(NS(=O)(=O)C2CC2)ccc1-c1cnc(N)c(-c2ccc3c(c2)CCNC3=O)c1		0	0		0	0	0	50						0		50	75	75	75	75	inhibition [23]: 0%
